Data reported in article PMC7377239, “Cardiovascular Effects of Polychlorinated Biphenyls and Their Major Metabolites” (Environmental Health Perspectives, 2020).
Where two headings read alike, the source gives them in different places.

Assays:
[1] = test system: iCell cardiomyocytes (human iPSC-derived cardiomyocytes); experiment: High-content imaging of cytotoxicity and mitochondrial integrity in iPSC-CMs; assay type: cell-based; conditions: Homo sapiens; for viability at 0.01 µM / activity at 0.01 µM / viability at 0.1 µM / activity at 0.1 µM / viability at 1 µM / activity at 1 µM / viability at 10 µM / activity at 10 µM / viability at 100 µM / activity at 100 µM: Cardiomyocyte, 0.00 µM = 100.00; for viability at 0.1 µM / activity at 0.1 µM: 0.10 µM; for minimal effective concentration: iPSC-CM
Outline: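 Readouts from high-content images were normalized to vehicle controls containing 0.5% vol/vol DMSO. They were fit to a four-parameter logistic model in R. Points of departure were set using a cutoff of one standard deviation across vehicle control means. Where no concentration–response was seen, the top tested concentration of 100μM was assigned as the no observable adverse effect level.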

HUVECs = experiment: High-content imaging cytotoxicity in HUVECs, 24 h; assay type: cell-based, human; conditions: Homo sapiens, HUVEC, 24 h, HUVECs; for viability at 0.01 µM / activity at 0.01 µM / viability at 0.1 µM / activity at 0.1 µM / viability at 1 µM / activity at 1 µM / viability at 10 µM / activity at 10 µM / viability at 100 µM / activity at 100 µM: 0.00 µM = 100.00; for viability at 0.1 µM / activity at 0.1 µM: 0.10 µM; for minimal effective concentration: top concentration 100.00 µM
Outline: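 HUVECs (passages 1–5) were plated at 750 cells/well without fibronectin, grown to a monolayer (3–5 d) and exposed to compounds for 24 h at 37°C, 5% CO2. Hoechst 33342, MitoTracker Orange and calcein AM staining was imaged at 10×; readouts were normalized to 0.5% DMSO vehicle and fit to a four-parameter logistic model.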

[2] = 24 hr, read-out: huvec.cyto.24hr
[3] = 24 hr, read-out: huvec.mito.24hr
[4] = 24 hr, read-out: huvec.mitoint.24hr
[5] = 24 hr, read-out: huvec.nma.24hr
[6] = 24 hrs, read-out: huvec.tc.24hrs

SMILES: COc1ccc(-c2cccc(Cl)c2)cc1Cl [4-OMe PCB11]
- viability at 0.01 µM ([1]; 1.5 h, read-out: cm.cam.90min): 89.1%
- activity at 0.01 µM ([1]; 1.5 h, read-out: cm.mii.90min): 112%
- activity at 0.01 µM ([1]; 1.5 h, read-out: cm.mito.90min): 87.5%
- viability at 0.01 µM ([1]; 1.5 h, read-out: cm.tc.90min): 89.6%
- viability at 0.1 µM ([1]; 1.5 h, read-out: cm.cam.90min): 101%
- activity at 0.1 µM ([1]; 1.5 h, read-out: cm.mii.90min): 93.8%
- activity at 0.1 µM ([1]; 1.5 h, read-out: cm.mito.90min): 101%
- viability at 0.1 µM ([1]; 1.5 h, read-out: cm.tc.90min): 101%
- viability at 1 µM ([1]; 1.5 h, read-out: cm.cam.90min): 96.5%
- activity at 1 µM ([1]; 1.5 h, read-out: cm.mii.90min): 94.7%
- activity at 1 µM ([1]; 1.5 h, read-out: cm.mito.90min): 96.6%
- viability at 1 µM ([1]; 1.5 h, read-out: cm.tc.90min): 96.7%
- viability at 10 µM ([1]; 1.5 h, read-out: cm.cam.90min): 99.9%
- activity at 10 µM ([1]; 1.5 h, read-out: cm.mii.90min): 109%
- activity at 10 µM ([1]; 1.5 h, read-out: cm.mito.90min): 100%
- viability at 10 µM ([1]; 1.5 h, read-out: cm.tc.90min): 100%
- viability at 100 µM ([1]; 1.5 h, read-out: cm.cam.90min): 3.43%
- activity at 100 µM ([1]; 1.5 h, read-out: cm.mii.90min): 74.3%
- activity at 100 µM ([1]; 1.5 h, read-out: cm.mito.90min): 2.03%
- viability at 100 µM ([1]; 1.5 h, read-out: cm.tc.90min): 3.76%
- viability at 0.01 µM ([1]; 24 h, read-out: cm.cam.24hrs): 95.2%
- activity at 0.01 µM ([1]; 24 h, read-out: cm.mii.24hrs): 95.8%
- activity at 0.01 µM ([1]; 24 h, read-out: cm.mito.24hrs): 97.8%
- viability at 0.01 µM ([1]; 24 h, read-out: cm.tc.24hrs): 97.4%
- viability at 0.1 µM ([1]; 24 h, read-out: cm.cam.24hrs): 102%
- activity at 0.1 µM ([1]; 24 h, read-out: cm.mii.24hrs): 88.6%
- activity at 0.1 µM ([1]; 24 h, read-out: cm.mito.24hrs): 104%
- viability at 0.1 µM ([1]; 24 h, read-out: cm.tc.24hrs): 103%
- viability at 1 µM ([1]; 24 h, read-out: cm.cam.24hrs): 95.3%
- activity at 1 µM ([1]; 24 h, read-out: cm.mii.24hrs): 107%
- activity at 1 µM ([1]; 24 h, read-out: cm.mito.24hrs): 93.6%
- viability at 1 µM ([1]; 24 h, read-out: cm.tc.24hrs): 95.6%
- viability at 10 µM ([1]; 24 h, read-out: cm.cam.24hrs): 102%
- activity at 10 µM ([1]; 24 h, read-out: cm.mii.24hrs): 85.8%
- activity at 10 µM ([1]; 24 h, read-out: cm.mito.24hrs): 103%
- viability at 10 µM ([1]; 24 h, read-out: cm.tc.24hrs): 103%
- viability at 100 µM ([1]; 24 h, read-out: cm.cam.24hrs): 2.29%
- activity at 100 µM ([1]; 24 h, read-out: cm.mii.24hrs): 34.1%
- activity at 100 µM ([1]; 24 h, read-out: cm.mito.24hrs): 0.46%
- viability at 100 µM ([1]; 24 h, read-out: cm.tc.24hrs): 2.4%
- minimal effective concentration ([1]; 1.5 h, read-out: cm.cam.90min POD): 33.8 µM
- minimal effective concentration ([1]; 1.5 h, read-out: cm.mii.90min POD): 62.2 µM
- minimal effective concentration ([1]; 1.5 h, read-out: cm.mito.90min POD): 29.1 µM
- minimal effective concentration ([1]; 1.5 h, read-out: cm.tc.90min POD): 28.6 µM
- minimal effective concentration ([1]; 24 h, read-out: cm.cam.24hrs POD): 37.2 µM
- minimal effective concentration ([1]; 24 h, read-out: cm.mii.24hrs POD): 10.8 µM
- minimal effective concentration ([1]; 24 h, read-out: cm.mito.24hrs POD): 31.1 µM
- minimal effective concentration ([1]; 24 h, read-out: cm.tc.24hrs POD): 33.4 µM
- viability at 0.01 µM (HUVECs; [2]): 96.4%
- activity at 0.01 µM (HUVECs; [3]): 94.6%
- activity at 0.01 µM (HUVECs; [4]): 95.4%
- activity at 0.01 µM (HUVECs; [5]): 96.3%
- viability at 0.1 µM (HUVECs; [2]): 98.3%
- activity at 0.1 µM (HUVECs; [3]): 98.5%
- activity at 0.1 µM (HUVECs; [4]): 106%
- activity at 0.1 µM (HUVECs; [5]): 101%
- viability at 1 µM (HUVECs; [2]): 101%
- activity at 1 µM (HUVECs; [3]): 100%
- activity at 1 µM (HUVECs; [4]): 103%
- activity at 1 µM (HUVECs; [5]): 100%
- viability at 10 µM (HUVECs; [2]): 89.7%
- activity at 10 µM (HUVECs; [3]): 86.4%
- activity at 10 µM (HUVECs; [4]): 95.6%
- activity at 10 µM (HUVECs; [5]): 92.7%
- viability at 100 µM (HUVECs; [2]): 56.3%
- activity at 100 µM (HUVECs; [3]): 44%
- activity at 100 µM (HUVECs; [4]): 65.8%
- activity at 100 µM (HUVECs; [5]): 73.1%
- minimal effective concentration (HUVECs; 24 hr, read-out: huvec.cyto.24hr POD): 7.59 µM
- minimal effective concentration (HUVECs; 24 hr, read-out: huvec.mito.24hr POD): 6.19 µM
- minimal effective concentration (HUVECs; 24 hr, read-out: huvec.mitoint.24hr POD): 16 µM
- minimal effective concentration (HUVECs; 24 hr, read-out: huvec.nma.24hr POD): 6.39 µM
- viability at 0.01 µM (HUVECs; [6]): 96.4%
- viability at 0.1 µM (HUVECs; [6]): 98.4%
- viability at 1 µM (HUVECs; [6]): 101%
- viability at 10 µM (HUVECs; [6]): 89.7%
- viability at 100 µM (HUVECs; [6]): 56.4%
- minimal effective concentration (HUVECs; 24 hrs, read-out: huvec.tc.24hrs POD): 7.59 µM
